Results as given in patent US20220267753A1, “RATIONAL THERAPEUTIC TARGETING OF ONCOGENIC IMMUNE SIGNALING STATES IN MYELOID MALIGNANCIES VIA THE UBIQUITIN CONJUGATING ENZYME UBE2N” (CHILDREN'S HOSPITAL MEDICAL CENTER, priority 2019, published 2022).

Experiments:
[1] = Microsomal stability (human liver microsomes); assay type: in vitro ADME
[2] = test system: patient-derived AML cells; experiment: Viability (MTS) of patient-derived AML samples (PDX AMLs); assay type: cell-based, human; conditions: hierarchical clustering, MTS 24 h
Method: AML cell lines (5×10^3 cells/well) were seeded in 96-well plates and grown for 24 to 96 h in serum (10%)-containing medium in the presence or absence of inhibitors at the indicated concentrations. Proliferation was analyzed by means of an MTS assay using the CellTiter 96 Aqueous One Solution Cell Proliferation Assay (Promega, Madison, Wis., USA), according to the manufacturer's instructions. Data are mean with standard deviation from three independent experiments in technical triplicates. For the screening of 160 compounds from the UC library, the cell metabolic activity was assessed at 24 hours of treatment of MOLM-13 cells. Top 15 candidates were re-screened at 2 μM, and the cell metabolic activity was determined at 24 hours of treatment. In certain experiments, cell viability was determined by staining the cells with trypan blue at a 1/2 dilution and counting total number of viable cells upon treatment with UC-764864 or DMSO control. The cells were counted daily for 4 days using an automated cell counter (Countess II FL from Life Technologies). […] UC-764864 was added at the indicated concentrations and cells were incubated with drug for 3 days, at which point cell viability was measured by MTS according to manufacturer's instructions. […]

UBE2N wild type = target: T1, UBE2N wild type (Homo sapiens, UniProt P61088); experiment: Differential scanning fluorimetry (DSF); assay type: binding; conditions: recombinant UBE2N protein
T1 construct: purchased Life sensors UB218
T1 sequence (P61088 1-152): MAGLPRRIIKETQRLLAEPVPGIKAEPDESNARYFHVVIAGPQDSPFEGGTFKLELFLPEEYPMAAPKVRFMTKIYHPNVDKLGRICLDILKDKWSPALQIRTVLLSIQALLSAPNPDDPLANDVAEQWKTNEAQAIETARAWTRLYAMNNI
Method: (§1) Recombinant UBE2N (2 .tg; Life sensors #UB218) in 3 .tl of buffer containing 20 mM Tris-HCl pH 7.4, 10 mM DTT, 10% glycerol, 150 mM NaCl and 0.02% DMSO as well as six samples of 1 .tg UBE2N mixed with 0.2 .tg of UC-764864 or UC-764865 were diluted to 50 ng/uL in 0.1% formic acid (FA) in preparation of MALDI-TOF analysis. Two .tl aliquots from the samples were used to make a 1:5 dilution with MALDI matrix (5 mg/mL sinapic acid in 60% ACN/0.1% formic acid) with 1 .tL spotted onto the target plate for analysis. For UBE2N C87S mutant, recombinant protein was purchased from Genescript. 2 micrograms of protein as well as 3 samples of UBE2N C87S were mixed with 0.4 micrograms of UC-764864 and UC-764865 in 10 microliters of buffer containing 20 mM Tris HCl pH 7.4, 1 mM DTT, 150 mM NaCl and ˜0.01% of DMSO in each sample. All mixtures were brought up to 40 ul by adding 30 ul of 0.1% formic acid (FA). 5 ul aliquots from the samples were used to make a 1:5 dilution with MALDI matrix as described above. […] The temperature was raised in 1° C. increments from 25° C. to 95° C. and fluorescence was measured at 530 nm. Derivative Tm was determined using Protein Thermal Shift Software version 1.3 by Applied Biosystems and then were analyzed with Prism 6 (GraphPad Software Inc.).

UBE2N C87S = target: T2, UBE2N C87S (Homo sapiens, UniProt P61088, C87S); experiment: Differential scanning fluorimetry (DSF); assay type: binding
T2 construct: purchased Genescript
T2 sequence (P61088 whole entry C87S): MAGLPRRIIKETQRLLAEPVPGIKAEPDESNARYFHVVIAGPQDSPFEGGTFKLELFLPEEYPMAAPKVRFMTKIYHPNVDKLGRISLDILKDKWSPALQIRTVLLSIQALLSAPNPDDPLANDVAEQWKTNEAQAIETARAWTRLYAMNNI
Method: as §1

| SMILES | metabolism in human liver microsomes [1] | sensitivity class of the other 20 PDX AMLs ([2]; 20 of 26 PDX AMLs) | sensitivity class of PDX AMLs JM1, JM7, JM18, JM26, JM30, JM40 ([2]; six of 26 PDX AMLs) | change in melting temperature (Tm) (UBE2N wild type) [C degrees] | change in Tm of UBE2N(C87S) (UBE2N C87S) |
| --- | --- | --- | --- | --- | --- |
| CCc1ccc(C(=O)C=CSc2nc3ccc(C)cc3[nH]2)cc1 [UC-764864, 1-(4-ethylphenyl)-3-[(6-methyl-1H-benzimidazol-2-yl)sulfanyl]prop-2-en-1-one] | readily metabolized | resistant | sensitive |  |  |
| COc1ccc(C(=O)C=CSc2nc3ccc(C)cc3[nH]2)cc1 [UC-764865, 1-(4-methoxyphenyl)-3-[(6-methyl-1H-benzimidazol-2-yl)sulfanyl]prop-2-en-1-one] |  |  |  | −2 | did not change |
